From paper PMC6747225 (International Journal of Environmental Research and Public …, 2019)

What was measured:
[1] = tested on: superoxide dismutase (SOD); test: Superoxide dismutase (SOD) activity in fish liver; assay type: in vivo, Carassius auratus; settings: SER alone 5 μg·L^−1 compared to control, seven days
Description: A dechlorinated water control treatment and solvent control treatment (0.1% methanol) were also set in the exposure treatments. Each treatment was prepared in six replicate tanks (30 L) with four fish per tank. Fish were not fed during the exposure period. The exposure solutions were refreshed every 24 h. After the exposure experiment, six fish were sampled in each treatment for biochemical assay and chemical analysis. The liver, brain, gills, and muscle were dissected, immediately frozen in liquid nitrogen, and stored at −80 °C until the assays. The remaining 18 fish in each treatment were used for behavioral trials at the end of exposure.
The tissue sample was homogenized in chilled physiological saline solution (1:10, w/v). The homogenates were then centrifuged for 10 min (10,000 g) at 4 °C. The obtained supernatant was used to determine enzyme activity, MDA content, and protein concentration using bioassay kits according to the manufacturer’s protocol. Enzyme activity is reported as unit (U) mg^−1 protein, and MDA content is expressed in nmol mg^−1 protein.

[2] = tested on: CY2D6 enzyme; settings: humans and mammals; cited from earlier work

Structure (SMILES) | SOD activity [1] | Inhibition of the CY2D6 enzyme [2]
CN[C@H]1CC[C@@H](c2ccc(Cl)c(Cl)c2)c2ccccc21 [SER, sertraline] | not significantly changed | 
CN(C)CCOC(c1ccccc1)c1ccccc1 [DPH, diphenhydramine] |  | strong inhibitor
